{
  "source": "patent US4435404A",
  "about": "“Carbostyril derivatives” (priority 1980, dated 1984)",
  "key": {"[1]": {"biological_target": "T1, cyclic AMP phosphodiesterase (Oryctolagus cuniculus, UniProt G1ST54)", "T1 construct": "the supernatant was collected to use it as a crude enzyme solution; from tissue; host or cells: rabbit platelets (from platelet-rich plasma)", "T1 sequence (G1ST54 1-1128)": "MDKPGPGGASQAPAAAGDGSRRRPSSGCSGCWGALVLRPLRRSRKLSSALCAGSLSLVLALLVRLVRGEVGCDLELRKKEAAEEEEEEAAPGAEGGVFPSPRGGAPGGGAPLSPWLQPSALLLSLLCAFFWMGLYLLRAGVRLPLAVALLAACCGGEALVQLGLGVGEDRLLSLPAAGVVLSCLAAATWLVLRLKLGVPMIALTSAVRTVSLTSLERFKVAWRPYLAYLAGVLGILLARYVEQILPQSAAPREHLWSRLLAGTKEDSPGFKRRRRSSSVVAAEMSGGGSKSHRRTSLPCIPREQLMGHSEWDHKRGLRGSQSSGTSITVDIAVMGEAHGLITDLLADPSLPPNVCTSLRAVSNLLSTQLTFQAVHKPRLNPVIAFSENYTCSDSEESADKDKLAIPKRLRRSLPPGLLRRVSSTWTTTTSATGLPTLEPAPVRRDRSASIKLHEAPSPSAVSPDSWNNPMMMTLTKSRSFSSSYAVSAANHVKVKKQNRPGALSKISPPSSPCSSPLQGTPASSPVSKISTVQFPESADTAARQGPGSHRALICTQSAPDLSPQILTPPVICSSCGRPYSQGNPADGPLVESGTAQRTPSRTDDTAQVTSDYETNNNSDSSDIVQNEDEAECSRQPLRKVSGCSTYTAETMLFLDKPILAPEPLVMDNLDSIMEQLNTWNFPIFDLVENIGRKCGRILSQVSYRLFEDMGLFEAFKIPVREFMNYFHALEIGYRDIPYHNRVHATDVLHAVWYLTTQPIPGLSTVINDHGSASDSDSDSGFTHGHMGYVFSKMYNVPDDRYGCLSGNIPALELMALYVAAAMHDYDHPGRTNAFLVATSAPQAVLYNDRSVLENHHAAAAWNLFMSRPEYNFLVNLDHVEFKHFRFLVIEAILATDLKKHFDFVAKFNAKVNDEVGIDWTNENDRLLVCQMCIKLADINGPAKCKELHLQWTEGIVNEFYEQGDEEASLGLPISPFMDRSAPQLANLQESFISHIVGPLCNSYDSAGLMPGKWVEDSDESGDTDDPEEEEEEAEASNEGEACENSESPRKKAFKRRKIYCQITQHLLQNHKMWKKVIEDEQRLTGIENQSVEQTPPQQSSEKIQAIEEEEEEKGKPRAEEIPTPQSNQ", "test": "Obstructive action against cyclic AMP phosphodiesterase", "type": "biochemical", "conditions": "rabbit platelet enzyme, 30° C., 20 minutes", "method": "That is, for determining the obstructive activity against cyclic AMP phosphodiesterase, 10 ml of a solution obtained by adding 1 mmol of MgCl2 into 50 mmol of tris-hydrochloric acid buffer with pH 7.4 was added to the platelets obtained by further centrifuging the above-said rabbit PRP at 3,000 r.p.m. for 10 minutes, and the suspended platelets were ground by a Teflon potter type homogenizer. This was followed by two times of freezing and thawing treatment and 300-second fracturing with 200 watt supersonic waves. After additional 60-minute centrifugation with 100,000 G, the supernatant was collected to use it as a crude enzyme solution.\n10 Milliliters of this crude buffer solution was added to a 1.5×20 cm DEAE-cellulose column which has previously been buffered with 50 mM of tris-acetate buffer (pH 6.0), followed by washing and elution with 30 ml of 50 mM tris-acetate buffer, and this buffer solution was subjected to linear gradient elution with 0 to 0.5 moles of sodium acetate-tris-acetatebuffer (total amount of elute was 300 ml.). The flow rate was 0.5 ml/min, and 5 ml of each fraction was batched out. […] This fraction was used as cyclic AMP phosphodiesterase.\n0.1 Milliliter of an aqueous solution of each test compound of a specified concentration was mixed with 40 mmol of tris-hydrochloric acid buffer (pH 8.0, containing 50 μg of cow serum albumin and 4 mmol of MgCl2) containing predetermined 1.0 μmol of cyclic AMP (tritium cyclic AMP), and 0.2 ml of this mixed solution was used as substrate solution.\n0.2 Milliliter of the above-prepared cyclic AMP phosphodiesterase of a predetermined concentration was added to said substrate solution and the mixture was reacted at 30° C. for 20 minutes, producing tritium 5'-AMP from the tritium cyclic AMP.\nThe reaction system was then immersed in boiling water for 2 minutes to stop the reaction, and then this reaction solution was cooled in ice water and, for converting the produced tritium 5'-AMP into tritium adenosine, the solution was added with 0.05 ml (1 mg/ml) of snake poison as 5'-nucleotidase and reacted at 30° C. for 10 minutes. The whole amount of this reaction solution was then added to a cation exchange resin (AG 500 W×4, 200-400 meshes, manufactured by Bio-Rad Co., column size: 0.5×1.5 cm), and the produced tritium anodesine alone was allowed to combine, washed with 6 ml of distilled water and eluted with 1.5 ml of 3 N-ammonia water. The whole quantity of the elutant was added with 10 ml of a triton-toluene type scintillator and the produced tritium adenosine was measured by a liquid scintillation counter to determine the phosphodiesterase activity.\nIn this way, the phosphodiesterase activation value (Vs) of the test compounds of the respective concentrations was determined, and the phosphodiesterase obstruction rate (%) was determined from said activation value (Vs) and control value (Vc) (obtained from water not containing any test compound) from the following formula: [formula] Known 1-methyl-3-isobutylxanthine was used as control."}, "[2]": {"tested_on": "Deoxycorticosteroneacetate (DOCA)/saline hypertension rats (DHR)", "test": "Hypotensive effect, Tail-cuff method, DHR", "type": "in vivo, rat", "conditions": "30 mg/kg oral, mean value ± standard deviation", "method": "Hypotensive effect of the compounds were measured by determining the maximum blood pressure of the test animals according to a procedure of Tail-cuff method.\nTest animals used were the following two types.\n(2) Deoxycorticosteroneacetate (DOCA)/saline hypertension rats (DHR)\nWistar strain male rats having 150-170 g of body weight, were anesthetized with ether and the left-side kidney was enucleated. One (1) week after the operation, 10 mg/kg of DOCA was injected subcutaneously once a week and 1% NaCl aqueous solution was given as drinking water. Five (5) weeks after the operation, rats having the maximum blood pressure over 150 mmHg were selected and used as test animals which were abstained from food for overnight.\nEach of compounds to be tested were administered orally and the blood pressure was measured before the administration and 1, 2, 4, 6 and 8 hours after the administration. The blood pressure was measured by using Recorder (Rectihoriz type 8S, San-ei Instrument) and Electrosthygmomanometer PE-300 (Macro Bio-systems, Houston, Tex.)."}},
  "data": [
    {"smiles": "O=C(CCCOc1ccc2[nH]c(=O)ccc2c1)N(CCO)C1CCCCC1", "note": "[No. 1, 6-{3-[N-(2-hydroxyethyl)-N-cyclohexylaminocarbonyl]propoxy}carbostyril]", "values": [
      {"measurement": "IC50", "setting": "[1]", "result": 150, "unit": "nM"},
      {"measurement": "Maximum blood pressure after the administration (difference)", "setting": "[2]; 1 hour", "result": "-46.0 ± 11.7", "unit": "mmHg"},
      {"measurement": "Maximum blood pressure after the administration (difference)", "setting": "[2]; 2 hours", "result": "-42.6 ± 6.5", "unit": "mmHg"},
      {"measurement": "Maximum blood pressure after the administration (difference)", "setting": "[2]; 4 hours", "result": "-37.6 ± 5.2", "unit": "mmHg"},
      {"measurement": "Maximum blood pressure after the administration (difference)", "setting": "[2]; 6 hours", "result": "-34.4 ± 10.5", "unit": "mmHg"},
      {"measurement": "Maximum blood pressure after the administration (difference)", "setting": "[2]; 8 hours", "result": "-29.0 ± 10.5", "unit": "mmHg"}
    ]}
  ]
}
